Results from patent US8455469B2, “Use of norgestimate as a selective inhibitor of TRPC3, TRPC6 and TRPC7 ion channels” (Sanofi, priority 2007, dated 2013).

How the values were obtained:
[1] = biological target: T1, TRPC5 (Homo sapiens, UniProt Q9UL62); assay: Whole-cell patch clamp, AlF4- activated TRPC5 HEK293 cells; type: cell-based; conditions: 10 μM 2-APB, used for background calculation
T1 construct: expressed in transfected cells; host or cells: HEK293 FITR (inducible expression)
T1 sequence (Q9UL62 1-973): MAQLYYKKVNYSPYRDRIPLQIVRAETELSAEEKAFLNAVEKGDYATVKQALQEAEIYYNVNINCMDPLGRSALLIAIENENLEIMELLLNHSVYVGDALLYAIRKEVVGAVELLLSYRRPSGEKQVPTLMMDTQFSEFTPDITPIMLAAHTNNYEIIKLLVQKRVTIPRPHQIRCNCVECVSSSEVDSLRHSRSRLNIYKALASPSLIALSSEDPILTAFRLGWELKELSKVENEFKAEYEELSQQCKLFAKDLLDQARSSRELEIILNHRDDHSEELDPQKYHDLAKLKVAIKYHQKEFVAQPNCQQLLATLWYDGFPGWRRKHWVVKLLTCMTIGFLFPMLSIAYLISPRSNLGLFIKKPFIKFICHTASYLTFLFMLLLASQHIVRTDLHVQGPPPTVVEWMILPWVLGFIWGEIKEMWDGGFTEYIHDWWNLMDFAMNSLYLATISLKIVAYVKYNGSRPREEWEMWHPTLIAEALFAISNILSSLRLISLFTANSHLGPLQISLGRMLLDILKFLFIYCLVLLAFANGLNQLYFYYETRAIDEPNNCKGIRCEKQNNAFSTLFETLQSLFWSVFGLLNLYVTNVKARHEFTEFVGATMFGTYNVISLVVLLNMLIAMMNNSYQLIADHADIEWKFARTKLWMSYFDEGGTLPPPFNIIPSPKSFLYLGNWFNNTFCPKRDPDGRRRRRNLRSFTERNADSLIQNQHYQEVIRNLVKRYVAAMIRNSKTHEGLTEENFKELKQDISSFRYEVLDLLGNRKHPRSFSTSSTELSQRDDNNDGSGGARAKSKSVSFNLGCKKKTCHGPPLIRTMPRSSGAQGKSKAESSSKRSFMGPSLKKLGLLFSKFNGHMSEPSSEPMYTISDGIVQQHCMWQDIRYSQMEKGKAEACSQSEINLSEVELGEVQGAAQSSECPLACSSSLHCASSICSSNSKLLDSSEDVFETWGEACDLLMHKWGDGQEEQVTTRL
Method: Channels were indirectly excited with the same stimulus for better comparability of the norgestimate effect. Aluminium tetrafluoride (AIF^4−) applied intracellularly via the patch pipette activates G-proteins by mimicking GTP (Sternweis & Gilman, 1982; Bigay et al., 1987).
Since these channels are potentiated by micromolar La^3+ concentrations (Jung et al., 2003), 2-aminoethoxydiphenyl borate (2-APB), a characterized TRPC5 blocker (Xu et al., 2005) was used instead.
(§1) Effect of 10 μM norgestimate (NG) on whole-cell currents evoked by AlF4^− infusion into induced TRPC6— (A) and TRPC5 HEK 293 (B) cells. Whole cell currents recorded at −70 mV (left panels) and the corresponding current-voltage (I-V) relationships are shown (right panels). […] The curves were obtained during voltage ramps from −100 to +80 mV. (C) Statistical analysis of the norgestimate effect on TRPC5— and TRPC6-mediated currents.

[2] = biological target: T2, TRPC6 (Homo sapiens, UniProt Q9Y210); assay: Whole-cell patch clamp, AlF4- activated TRPC6 HEK293 cells; type: cell-based; conditions: 10 μM La3+, used for background calculation
T2 construct: expressed in transfected cells; host or cells: HEK293 (inducible expression)
T2 sequence (Q9Y210 1-931): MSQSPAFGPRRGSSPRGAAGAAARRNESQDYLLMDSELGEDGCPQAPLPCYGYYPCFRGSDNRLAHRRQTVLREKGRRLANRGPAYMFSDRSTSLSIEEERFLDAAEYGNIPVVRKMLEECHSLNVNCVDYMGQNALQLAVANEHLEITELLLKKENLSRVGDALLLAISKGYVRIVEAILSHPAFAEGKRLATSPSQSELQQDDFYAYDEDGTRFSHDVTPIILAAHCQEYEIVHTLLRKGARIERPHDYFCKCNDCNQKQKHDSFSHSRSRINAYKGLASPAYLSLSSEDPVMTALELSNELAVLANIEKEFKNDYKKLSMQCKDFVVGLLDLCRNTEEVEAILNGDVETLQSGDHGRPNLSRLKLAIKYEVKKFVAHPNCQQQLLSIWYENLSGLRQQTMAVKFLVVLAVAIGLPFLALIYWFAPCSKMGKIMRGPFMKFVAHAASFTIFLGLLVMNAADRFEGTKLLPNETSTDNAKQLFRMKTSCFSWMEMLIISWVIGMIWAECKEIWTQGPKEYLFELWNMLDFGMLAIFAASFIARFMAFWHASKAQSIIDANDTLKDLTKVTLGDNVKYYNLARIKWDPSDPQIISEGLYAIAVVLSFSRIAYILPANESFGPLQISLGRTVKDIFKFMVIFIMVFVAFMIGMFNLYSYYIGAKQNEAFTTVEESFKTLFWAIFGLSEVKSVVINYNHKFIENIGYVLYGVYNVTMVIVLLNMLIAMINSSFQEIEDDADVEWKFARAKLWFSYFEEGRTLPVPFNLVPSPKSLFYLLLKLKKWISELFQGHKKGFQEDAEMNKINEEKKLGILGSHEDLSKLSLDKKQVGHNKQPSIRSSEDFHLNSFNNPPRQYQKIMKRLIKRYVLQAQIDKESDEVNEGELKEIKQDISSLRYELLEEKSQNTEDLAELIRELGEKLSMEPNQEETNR
Description: Inhibition of TRPC6- and TRPC5-mediated Ca^2+ -influx by norgestimate monitored in fluorometric experiments with cell populations was validated and compared with whole-cell patch clamp recordings of single cells. Channels were indirectly excited with the same stimulus for better comparability of the norgestimate effect. Aluminium tetrafluoride (AIF^4−) applied intracellularly via the patch pipette activates G-proteins by mimicking GTP (Sternweis & Gilman, 1982; Bigay et al., 1987). Subsequently TRPC channels are stimulated and mediate non-specific cationic currents (FIG. 3 A, B) When 10 μM norgestimate were applied to activated TRPC6 channels, 89.9 ±3.1% (n=15) of the current measured at resting membrane potential was blocked. This inhibition was reversible as current amplitude increased after norgestimate wash out (FIG. 3 A).
as §1, with “currents. 10 μM norgestimate inhibit 25.9±5.7% (n=20) of TRPC5-mediated currents and 89.9±3.1% (n=15) of TRPC6-mediated currents (P<0.001, Wilcoxon test, two-sided).” for “currents.”

[3] = biological target: T1, TRPC5; conditions: micromolar concentrations (Jung et al., 2003); cited from earlier work

Row | Compound | block of TRPC5 channel [1] | block of TRPC6 current [2] | block of TRPC6 current ([2]; listed as La^3+) | effect of micromolar La3+ concentrations on TRPC5 channels [3]
1 | NCCOB(c1ccccc1)c1ccccc1 [2-APB, 2-aminoethoxydiphenyl borate] | completely and reversibly blocked | – | – | –
2 | [La] [lanthanum] | – | complete and reversible | completely blocked | potentiated
